Measurements: paper PMC8351955, “Targeting Mycobacterium tuberculosis response to environmental cues for the development of effective antitubercular drugs” (PLoS Biology, 2021)
Where two headings read alike, the source gives them in different places.

Assays:
Assay in all cases: microbe, parasite or virus in culture
Assay type in all cases: cell-based, Mycobacterium tuberculosis
[1] = system: CDC1551(rv2390c′::GFP) reporter Mtb strain, response to high [Cl−]; settings: for activity at 10 µM / activity at 20 µM / IC50: Mycobacterium tuberculosis; for activity at 10 µM / activity at 20 µM: 144 h; for activity at 20 µM: read-out: rv2390c'::GFP validation assay NPA% at 20 µM compound; for IC50: read-out: ShuminTan.MtbChloride.Validation: IC50; for ShuminTan.MtbChloride.Primary: NPI%: primary screen, Sheet2
[2] = system: CDC1551(rv1405c′::GFP) reporter Mtb strain; settings: for IC50 / activity at 10 µM / activity at 20 µM: Mycobacterium tuberculosis; for IC50: read-out: ShuminTan.MtbChloride.Secondary: IC50; for activity at 10 µM: read-out: rv1405c'::GFP secondary assay NPA% at 10 µM compound; for activity at 20 µM: read-out: rv1405c'::GFP secondary assay NPA% at 20 µM compound
[3] = system: Mtb growth in J774 murine macrophage-like cells; settings: for inhibition at 20 µM / IC50 / inhibition at 10 µM: Mycobacterium tuberculosis; for IC50: J774 dose response 0.039-20 µM, read-out: ShuminTan.Mtb.Validation.Macrophage: IC50; for inhibition at 10 µM: read-out: J774 tertiary assay % inhibition compared to Rif at 10 µM compound; for NPI (Mtb growth in J774 cells), average: Fig 1F
[4] = pH 6.4, […], DMSO positive control = 100%, read-out: Primary screen rv2390c'::GFP NPA%
[5] = 10 µM, pH 6.4, 250 mM NaCl, 6 days, read-out: rv2390c'::GFP validation assay NPA% at 10 µM compound
[6] = J774, read-out: %inhibition compared to Rif in J774 at 20 uM
[7] = J774, 144 h, read-out: J774 tertiary assay % inhibition compared to Rif at 20 µM compound

SMILES | validation NPI at 10 uM [1] | validation NPI at 20 uM [1] | activity at 10 µM [1, 4] [%] | activity at 10 µM [1, 5] [%] | activity at 20 µM ([1]; pH 6.4, 250 mM NaCl, 6 days) [%] | IC50 [1] [µM] | ShuminTan.MtbChloride.Primary: NPI% [1] [%] | rv1405c assay NPI at 10 uM [2] | rv1405c assay NPI at 20 uM [2] | IC50 [2] [µM] | activity at 10 µM [2] [%] | activity at 20 µM [2] [%] | inhibition at 20 µM [3, 6] [%] | IC50 [3] [µM] | inhibition at 10 µM ([3]; J774, 144 h) [%] | inhibition at 20 µM [3, 7] [%] | further results
O=S1(=O)CC(S(=O)(=O)Nc2ccccc2-c2cccs2)c2ccccc21 (centres unmarked) [RU-0214604, O=S(=O)(NC1=C(C=CC=C1)C1=CC=CS1)C1CS(=O)(=O)C2=C1C=CC=C2] | 146 | 162 | 183 | 145 ± 12 | 161 ± 3.2 | < 0.0391 | 183.08 | 181 | 212 | < 0.0391 | 179 ± 26.5 | 213 ± 23.6 | 14.8 | > 20 | – | – | –
O=C(Nc1ccc(OCC(F)(F)F)nc1)N1CCCCCCC1 [RU-0275323, FC(F)(F)COC1=NC=C(NC(=O)N2CCCCCCC2)C=C1] | 88.4 | 51.1 | 45.1 | 87.5 ± 8 | 49.4 ± 7.1 | 13 | 45.0537 | 111 | 112 | < 0.0391 | 111 ± 5.5 | 112 ± 10.6 | 15.8 | > 20 | – | – | –
N=C1SCC(=O)N1c1ncc(Cc2ccccc2)s1 [RU-0270641, N=C1SCC(=O)N1C1=NC=C(CC2=CC=CC=C2)S1] | – | – | 42.5 | 69 ± 5 | 33.9 ± 6.5 | – | – | – | – | – | 79.6 ± 11 | 110 ± 12.2 | – | – | 12.1 ± 10.5 | 28.8 ± 4.5 | –
CCc1nc(Cn2ccnc2-c2nc3c(s2)CCCC3)no1 [RU-0226010, CCC1=NC(CN2C=CN=C2C2=NC3=C(CCCC3)S2)=NO1] | – | – | 168 | 125 ± 6.6 | 129 ± 4 | – | – | – | – | – | 92.3 ± 12.5 | 104 ± 23.1 | – | – | – | 30.4 ± 2.4 | –
N#Cc1nc(NC(=O)c2ccc(N3CCCC3)c(F)c2)[nH]c1C#N [RU-0274370, FC1=C(C=CC(=C1)C(=O)NC1=NC(C#N)=C(N1)C#N)N1CCCC1] | – | – | 227 | 143 ± 10 | 268 ± 20.8 | – | – | – | – | – | 181 ± 7.8 | 363 ± 8.7 | – | – | 22.2 ± 0.2 | 25.3 ± 4.1 | –
O=C(Nc1cccc(C(F)(F)F)c1)c1n[nH]c(=O)c2ccccc12 [RU-0270645, FC(F)(F)C1=CC(NC(=O)C2=NNC(=O)C3=C2C=CC=C3)=CC=C1] | 143 | 153 | 155 | 142 ± 8.2 | 152 ± 12.1 | < 0.0391 | 154.973 | 93.5 | 138 | < 0.0391 | 93.4 ± 11.5 | 139 ± 4.6 | 17.7 | > 20 | – | – | –
Cc1cccc(C)c1OC1CCN(c2cncc(C(N)=O)n2)CC1 [RU-0273431, CC1=CC=CC(C)=C1OC1CCN(CC1)C1=NC(=CN=C1)C(N)=O] | – | – | 151 | 136 ± 9.1 | 135 ± 17.7 | – | – | – | – | – | 145 ± 16 | 159 ± 12.5 | – | – | 21.4 ± 7.4 | 34.9 ± 5.2 | –
CCCSc1ncc(CN2CCN(c3ncnc4[nH]cnc34)CC2)cn1 [C6 analog, CCCSC1=NC=C(CN2CCN(CC2)C2=NC=NC3=C2N=CN3)C=N1] | – | – | 153 | 124 ± 10.1 | 158 ± 6.1 | – | – | – | – | – | 151 ± 6.4 | 154 ± 8.1 | – | – | 41.2 ± 0.6 | 53.2 ± 1.6 | NPI (Mtb growth in J774 cells), average ([3]; 0.078125 µM, 5 µM rifampicin = 100% inhibition): -6.22%; NPI (Mtb growth in J774 cells), average ([3]; 0.15625 µM): 3.8025%; NPI (Mtb growth in J774 cells), average ([3]; 0.3125 µM): 9.675%; NPI (Mtb growth in J774 cells), average ([3]; 0.625 µM): 16.75%; NPI (Mtb growth in J774 cells), average ([3]; 1.25 µM): 32.05%; NPI (Mtb growth in J774 cells), average ([3]; 2.5 µM): 36.55%; NPI (Mtb growth in J774 cells), average ([3]; 5 µM): 46.75%; NPI (Mtb growth in J774 cells), average ([3]; 10 µM): 41.15%; NPI (Mtb growth in J774 cells), average ([3]; 20 µM): 53.2%
COc1ccc(Cl)c(NS(=O)(=O)c2cnc(Cl)n2C)c1 [RU-0278036, COC1=CC(NS(=O)(=O)C2=CN=C(Cl)N2C)=C(Cl)C=C1] | – | – | 48.8 | 87.6 ± 8 | 50 ± 7.7 | – | – | – | – | – | 75.9 ± 12.9 | 152 ± 19.9 | – | – | 23.9 ± 12.9 | 61.5 ± 2.6 | –
